# From patent publication EP4810483A1, “6- AND 5-HETEROARYL DERIVATIVES AND USE THEREOF” (CMS Research & Development Pte. Ltd., priority 2023, dated 2025)
# Like-named read-outs stand apart in the source and are kept apart here.
# Assays:
# [1] = molecular target: T1, hERG potassium channel (Homo sapiens, UniProt Q12809); experiment: Automated patch clamp (Qpatch) assay for hERG potassium channel activity; format: cell-based
# T1 construct: expressed in transfected cells; host or cells: CHO-hERG
# Procedure: Assay Example 5: Automated patch clamp (Qpatch) assay for hERG potassium channel activity
# CHO-hERG cells were cultured in 175 cm^2 culture flasks. When the cell density reached 60-80%, the culture medium was removed, the cells were washed once with 7 mL of PBS, and then 3 mL of cell dissociation reagent was added for digestion. After complete digestion, 7 mL of culture medium was added to neutralize, and the cells were centrifuged. The supernatant was aspirated, and the cells were resuspended in 5 mL of culture medium to achieve a cell density of 2~5 × 10^6/mL.
# The compound stock solution was diluted with DMSO. 10 µL of compound stock solution was added to 20 µL of DMSO solution, followed by 3-fold serial dilution to obtain 6 DMSO concentrations. 4 µL of the compound solution at each of the six DMSO concentrations was added to 396 µL of extracellular solution to achieve a 100-fold dilution to obtain six intermediate concentrations. Then, 80 µL of the compound solution at each of the six intermediate concentrations was added to 320 µL of extracellular solution to achieve a 5-fold dilution to the desired final test concentrations. […]
# The electrophysiological process was recorded. […] This voltage stimulation was applied every 15 seconds, and recorded for 2 minutes. The extracellular solution was then given, and recorded for 5 minutes. […]
# The assay data were analyzed using GraphPad Prism 5.0 software. […]
# [2] = molecular target: CYP2C19 (Homo sapiens, UniProt P33261); experiment: Drug-drug interaction evaluation: CYP inhibition in human liver microsomes (cocktail method)
# Procedure: (§1) The cocktail method using specific probe substrates for CYP1A2, CYP2C9, CYP2C19, CYP2D6 and CYP3A was used to evaluate the inhibitory effect of the compounds on the activity of human liver microsomal cytochrome P450 isoenzymes (CYP1A2, CYP2C9, CYP2C19, CYP2D6 and CYP3A).
# (§2) Human liver microsomes, probe substrates, positive control inhibitors, and reduced nicotinamide adenine dinucleotide phosphate (NADPH).
# (§3) To the corresponding wells of a reaction plate, 20 µL of substrate solution was added; to blank wells, 20 µL of potassium phosphate buffer was added.
# (§4) To the corresponding wells, 2 µL of test compound and positive control working solution were added; to inhibitor-free and blank wells, 2 µL of solvent was added.
# (§5) Human liver microsome working solution was prepared, and 158 µL of human liver microsome working solution was added to each well of the reaction plate.
# (§6) The plate was pre-incubated at 37.0°C for 10 minutes.
# (§7) To start the reaction, 20 µL of NADPH cofactor working solution was added to the reaction plate.
# (§8) After incubation in a 37.0°C water bath with mixing for 10 minutes, 400 µL of stop solution was added to terminate the reaction.
# (§9) The sample plate was centrifuged at 4000 rpm for 20 minutes.
# (§10) 200 µL of supernatant was taken and mixed with 100 µL of pure water as diluent, and the plate was shaken to mix well.
# (§11) Analysis was performed by liquid chromatography-tandem mass spectrometry (LC-MS/MS).
# (§12) Using the percentage of remaining activity as the ordinate and the test compound concentration as the abscissa, a non-linear regression analysis was performed with a three-parameter or four-parameter model using XL fit software to calculate the IC50 value.
# (§13) y = (max)/(1 + (((x)/(IC50)))^−hillslope) [formula]
# (§14) y = min + (max−min)/(1 + (((x)/(IC50)))^−hillslope) [formula]
# (§15) max = maximum enzyme activity; min = minimum enzyme activity; x = concentration of test compound or positive control inhibitor; y = enzyme activity at the corresponding concentration; hillslope = slope; IC50 = half-maximal inhibitory concentration. The four-parameter equation was used when the minimum enzyme activity was within ±10%; otherwise the three-parameter equation was used.
# [3] = molecular target: CYP2D6 (Homo sapiens, UniProt P10635); experiment: as above
# Procedure: as §1, §2, §3, §4, §5, §6, §7, §8, §9, §10, §11, §12, §13, §14, §15
# [4] = molecular target: CYP2C9 (Homo sapiens, UniProt P11712); experiment: as above
# Procedure: as §1, §2, §3, §4, §5, §6, §7, §8, §9, §10, §11, §12, §13, §14, §15
# [5] = molecular target: T2, CYP1A2 (Homo sapiens, UniProt P05177); experiment: as above
# T2 sequence (P05177 1-516): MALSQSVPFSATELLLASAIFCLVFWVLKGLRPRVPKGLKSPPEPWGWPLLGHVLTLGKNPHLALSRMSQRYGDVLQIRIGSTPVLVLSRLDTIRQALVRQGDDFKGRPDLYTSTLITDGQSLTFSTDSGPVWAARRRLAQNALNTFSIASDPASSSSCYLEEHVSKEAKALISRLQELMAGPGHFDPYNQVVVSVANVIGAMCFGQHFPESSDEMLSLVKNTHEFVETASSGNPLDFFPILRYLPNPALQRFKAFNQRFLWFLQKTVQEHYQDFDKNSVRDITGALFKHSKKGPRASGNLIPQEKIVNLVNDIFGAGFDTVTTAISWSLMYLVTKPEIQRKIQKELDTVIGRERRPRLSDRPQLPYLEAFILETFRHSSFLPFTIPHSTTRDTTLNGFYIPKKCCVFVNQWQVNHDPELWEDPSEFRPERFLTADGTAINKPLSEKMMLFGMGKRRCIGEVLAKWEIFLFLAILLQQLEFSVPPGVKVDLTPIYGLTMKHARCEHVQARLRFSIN
# Procedure: as §1, §2, §3, §4, §5, §6, §7, §8, §9, §10, §11, §12, §13, §14, §15
# [6] = molecular target: CYP3A4 (Homo sapiens, UniProt P08684); experiment: as above
# Procedure: as §1, §2, §3, §4, §5, §6, §7, §8, §9, §10, §11, §12, §13, §14, §15
# CYP3A4, sequence (P08684 2-503): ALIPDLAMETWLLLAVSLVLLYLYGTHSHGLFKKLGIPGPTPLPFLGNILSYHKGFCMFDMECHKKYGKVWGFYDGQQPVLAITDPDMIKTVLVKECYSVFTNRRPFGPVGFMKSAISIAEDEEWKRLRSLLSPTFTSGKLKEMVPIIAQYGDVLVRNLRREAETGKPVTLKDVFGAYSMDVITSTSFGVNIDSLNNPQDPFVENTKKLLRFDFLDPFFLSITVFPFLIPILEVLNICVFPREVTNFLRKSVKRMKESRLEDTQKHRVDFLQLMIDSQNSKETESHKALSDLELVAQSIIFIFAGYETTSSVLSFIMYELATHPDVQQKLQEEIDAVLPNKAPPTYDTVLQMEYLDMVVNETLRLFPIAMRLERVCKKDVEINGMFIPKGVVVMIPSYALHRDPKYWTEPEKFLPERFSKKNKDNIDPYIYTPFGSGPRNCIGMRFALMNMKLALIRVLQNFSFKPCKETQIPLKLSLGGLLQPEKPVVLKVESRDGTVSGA
# T1 sequence (Q12809 whole entry): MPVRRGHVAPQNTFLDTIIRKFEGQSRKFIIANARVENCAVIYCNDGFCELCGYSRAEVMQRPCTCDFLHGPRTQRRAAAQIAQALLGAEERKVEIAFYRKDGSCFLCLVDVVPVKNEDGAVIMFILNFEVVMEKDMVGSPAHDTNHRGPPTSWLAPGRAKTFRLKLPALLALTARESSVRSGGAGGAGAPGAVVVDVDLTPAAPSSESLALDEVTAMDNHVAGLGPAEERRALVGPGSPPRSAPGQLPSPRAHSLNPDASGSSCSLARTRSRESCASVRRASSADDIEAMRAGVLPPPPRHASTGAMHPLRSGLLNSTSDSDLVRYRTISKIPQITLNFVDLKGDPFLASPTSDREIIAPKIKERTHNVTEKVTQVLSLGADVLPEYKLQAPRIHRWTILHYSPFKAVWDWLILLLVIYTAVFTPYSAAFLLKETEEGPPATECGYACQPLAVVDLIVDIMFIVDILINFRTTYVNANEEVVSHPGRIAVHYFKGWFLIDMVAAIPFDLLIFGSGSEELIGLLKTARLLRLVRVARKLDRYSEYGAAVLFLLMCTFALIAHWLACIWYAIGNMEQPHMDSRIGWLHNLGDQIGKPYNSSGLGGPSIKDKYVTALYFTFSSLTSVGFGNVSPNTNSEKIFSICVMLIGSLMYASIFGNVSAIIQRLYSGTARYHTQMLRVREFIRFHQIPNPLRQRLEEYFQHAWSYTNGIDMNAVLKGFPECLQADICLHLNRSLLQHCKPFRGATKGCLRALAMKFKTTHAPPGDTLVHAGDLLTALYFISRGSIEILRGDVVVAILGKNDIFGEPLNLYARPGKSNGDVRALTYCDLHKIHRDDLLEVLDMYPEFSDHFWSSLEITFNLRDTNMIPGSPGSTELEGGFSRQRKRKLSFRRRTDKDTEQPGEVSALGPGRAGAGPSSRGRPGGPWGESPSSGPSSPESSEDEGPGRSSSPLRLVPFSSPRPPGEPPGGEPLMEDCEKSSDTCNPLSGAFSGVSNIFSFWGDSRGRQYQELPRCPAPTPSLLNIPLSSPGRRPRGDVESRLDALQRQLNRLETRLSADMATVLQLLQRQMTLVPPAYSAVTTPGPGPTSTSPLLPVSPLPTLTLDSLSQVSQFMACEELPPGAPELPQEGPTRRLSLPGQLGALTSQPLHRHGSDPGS
# CYP2C9, sequence (P11712 whole entry): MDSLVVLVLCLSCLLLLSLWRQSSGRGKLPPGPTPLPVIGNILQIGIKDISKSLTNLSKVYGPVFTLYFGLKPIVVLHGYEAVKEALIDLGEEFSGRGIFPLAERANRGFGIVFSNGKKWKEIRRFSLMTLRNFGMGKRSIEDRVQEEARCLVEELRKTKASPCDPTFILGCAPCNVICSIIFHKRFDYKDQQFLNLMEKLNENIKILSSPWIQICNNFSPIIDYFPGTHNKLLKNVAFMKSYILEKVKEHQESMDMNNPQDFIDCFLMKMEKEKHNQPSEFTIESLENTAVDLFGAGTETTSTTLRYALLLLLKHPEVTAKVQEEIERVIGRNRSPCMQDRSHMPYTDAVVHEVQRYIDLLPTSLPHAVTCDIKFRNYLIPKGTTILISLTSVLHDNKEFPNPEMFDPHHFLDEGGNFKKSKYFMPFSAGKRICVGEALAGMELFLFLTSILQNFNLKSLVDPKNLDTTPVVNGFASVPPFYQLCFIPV
# CYP2C19, sequence (P33261 whole entry): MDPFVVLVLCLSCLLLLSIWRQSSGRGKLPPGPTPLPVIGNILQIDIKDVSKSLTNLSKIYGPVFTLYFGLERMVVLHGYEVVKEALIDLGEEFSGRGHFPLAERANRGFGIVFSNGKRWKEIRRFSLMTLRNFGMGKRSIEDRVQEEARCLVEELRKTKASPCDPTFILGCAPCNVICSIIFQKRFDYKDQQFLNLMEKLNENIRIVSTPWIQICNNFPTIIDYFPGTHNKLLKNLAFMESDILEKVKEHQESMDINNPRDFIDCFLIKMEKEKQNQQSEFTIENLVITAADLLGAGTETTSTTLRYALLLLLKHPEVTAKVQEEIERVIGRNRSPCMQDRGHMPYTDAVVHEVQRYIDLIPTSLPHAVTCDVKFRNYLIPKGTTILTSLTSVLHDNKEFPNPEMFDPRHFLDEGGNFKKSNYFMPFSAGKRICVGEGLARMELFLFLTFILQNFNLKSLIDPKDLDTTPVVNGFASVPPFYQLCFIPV
# CYP2D6, sequence (P10635 whole entry): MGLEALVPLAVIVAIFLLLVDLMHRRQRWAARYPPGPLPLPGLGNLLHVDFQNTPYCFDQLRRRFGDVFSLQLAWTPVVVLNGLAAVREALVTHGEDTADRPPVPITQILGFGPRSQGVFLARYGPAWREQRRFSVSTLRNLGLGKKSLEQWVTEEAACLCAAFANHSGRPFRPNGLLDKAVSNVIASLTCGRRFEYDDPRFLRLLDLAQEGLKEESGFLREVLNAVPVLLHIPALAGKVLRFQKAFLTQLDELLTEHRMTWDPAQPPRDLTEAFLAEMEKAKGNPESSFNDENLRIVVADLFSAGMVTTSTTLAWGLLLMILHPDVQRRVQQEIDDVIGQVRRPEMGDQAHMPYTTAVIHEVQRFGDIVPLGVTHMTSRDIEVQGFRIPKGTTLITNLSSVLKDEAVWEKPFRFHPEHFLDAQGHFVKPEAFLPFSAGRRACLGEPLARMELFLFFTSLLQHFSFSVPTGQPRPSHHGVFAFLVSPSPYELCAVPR
smiles,measurement,setting,value
Cc1c(NC(=O)CC(C)(C)C)n(C)c2cc(Nc3ccc(F)cc3)ccc12 [Compound 1],IC50,"[1]; CHO-hERG cells, Qpatch, highest test concentration 40.00 µM, read-out: IC50",> 40 µM
Cc1nc(Nc2ccc3c(C)c(NC(=O)CC(C)(C)C)n(C)c3c2)ccc1F [Compound 41],IC50,[2],> 50 µM
same,IC50,[3],> 50 µM
same,IC50,[4],11 µM
same,IC50,[5],11 µM
same,IC50,[6],> 50 µM
Cc1c(NC(=O)CC(C)(C)C)n(C)c2cc(Nc3ccc(C(F)(F)F)cc3)ccc12 [Compound 5],IC50,[1],> 40 µM
same,IC50,[6],> 50 µM
